Values joined by “and” are separate entries in the source; they are usually repeats but may differ in a detail not shown here. Equal values may be shown once.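 Compound exposure: 48 hours, 5 concentrations, 96-well plates. GI50: concentration for 50% inhibition of growth. TGI is the concentration that stops growth completely.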
Tests used:
Assay in all cases: NCI tumour cell line growth inhibition, 48 h
[1] = system: 786-0 renal
[2] = system: A498 renal
[3] = system: A549 NSCLC
[4] = system: ACHN renal
[5] = system: CAKI-1 renal
[6] = system: CCRF-CEM leukemia
[7] = system: COLO 205 colon
[8] = system: DLD-1 colon
[9] = system: DMS 114 small cell lung
[10] = system: HCC-2998 colon
[11] = system: HCT-116 colon
[12] = system: HCT-15 colon
[13] = system: HL-60(TB) leukemia
[14] = system: HOP-18 NSCLC
[15] = system: HOP-62 NSCLC
[16] = system: HOP-92 NSCLC
[17] = system: HT29 colon
[18] = system: IGROV1 ovarian
[19] = system: K-562 leukemia
[20] = system: KM20L2 colon
[21] = system: LOX IMVI melanoma
[22] = system: LXFL 529 NSCLC
[23] = system: M14 melanoma
[24] = system: M19-MEL melanoma
[25] = system: MALME-3M melanoma
[26] = system: MOLT-4 leukemia
[27] = system: NCI-H226 lung
[28] = system: NCI-H23 lung
[29] = system: NCI-H460 lung
[30] = system: NCI-H522 lung
[31] = system: OVCAR-3 ovarian
[32] = system: OVCAR-4 ovarian
[33] = system: OVCAR-5 ovarian
[34] = system: OVCAR-8 ovarian
[35] = system: P388 leukemia
[36] = system: P388/ADR leukemia
[37] = system: RPMI-8226 leukemia
[38] = system: RXF 393 renal
[39] = system: SF-268 CNS
[40] = system: SF-295 CNS
[41] = system: SF-539 CNS
[42] = system: SK-MEL-28 melanoma
[43] = system: SK-MEL-5 melanoma
[44] = system: SK-OV-3 ovarian
[45] = system: SN12C renal
[46] = system: SNB-19 CNS
[47] = system: SNB-75 CNS
[48] = system: SNB-78 CNS
[49] = system: SW-620 colon
[50] = system: TK-10 renal
[51] = system: U251 CNS
[52] = system: UACC-257 melanoma
[53] = system: UACC-62 melanoma
[54] = system: UO-31 renal
[55] = system: XF 498 CNS

C=CC(=O)NC(N)=NC#N
TGI [1]: 300 µM
TGI [2]: 285 µM
TGI [3]: 345 µM
TGI [4]: 245 µM
GI50 [5]: 171 µM
TGI [5]: 361 µM
GI50 [6]: 130 µM
TGI [6]: > 66.1 µM and 317 µM
TGI [7]: 280 µM
TGI [8]: 311 µM
TGI [9]: 250 µM
TGI [10]: 329 µM
TGI [11]: 329 µM
TGI [12]: 258 µM
GI50 [13]: 132 µM
TGI [13]: > 66.3 µM and 327 µM
TGI [14]: 283 µM
TGI [15]: 423 µM
GI50 [16]: 103 µM
TGI [16]: > 63.7 µM and 252 µM
TGI [17]: 372 µM
TGI [18]: 330 µM
GI50 [19]: 136 µM
TGI [19]: 445 µM
TGI [20]: 287 µM
GI50 [21]: 129 µM
TGI [21]: 273 µM
TGI [22]: 250 µM
TGI [23]: 292 µM
TGI [24]: 278 µM
TGI [25]: 303 µM
GI50 [26]: 197 µM
TGI [26]: 555 µM
TGI [27]: 353 µM
TGI [28]: 344 µM
TGI [29]: 360 µM
GI50 [30]: 1.95 µM
TGI [30]: 36.9 µM and 4.09 µM
TGI [31]: 310 µM
TGI [32]: 304 µM
TGI [33]: 317 µM
TGI [34]: 484 µM
TGI [35]: > 43.5 µM
TGI [36]: > 58 µM
GI50 [37]: 91.6 µM
TGI [37]: > 67.3 µM and 446 µM
GI50 [38]: 149 µM
TGI [38]: 98.1 µM and 286 µM
TGI [39]: 260 µM
TGI [40]: 843 µM
TGI [41]: 303 µM
TGI [42]: 261 µM
TGI [43]: 301 µM
TGI [44]: 315 µM
TGI [45]: 293 µM
TGI [46]: 523 µM
TGI [47]: 289 µM
TGI [48]: 399 µM
GI50 [49]: 160 µM
TGI [49]: 314 µM
TGI [50]: 272 µM
TGI [51]: 296 µM
TGI [52]: 249 µM
TGI [53]: 294 µM
TGI [54]: 333 µM
GI50 [55]: 157 µM
TGI [55]: 313 µM
